Results taken from patent US20040220260A1, “Use of mono-or di-esters of cinnamic acid or of one of its derivatives and vitamin C, as donor of NO” (L'OREAL S.A., priority 2003, published 2004).

Columns and labels:
[1] = target: T1, inducible NO synthase (NOS2) (Homo sapiens, UniProt P35228); assay: screening test of the modulation of induction of NOS2 by normal human keratinocytes (nitrite/nitrate measurement); format: cell-based; details: for % inhibition: normal human keratinocytes, NOS2 induced by cytokines, nitrites and nitrates measured
T1 construct: endogenous in cells; host or cells: normal human keratinocytes (primary culture), induced with interferon-γ and interleukin 1-β
Procedure: The activity of ascorbyl 2-O-cinnamate on the inducible NO synthase was evaluated in the assay described by Heck et al. (J.B.C., vol. 267, No. 30, 21277-21280, 25 Oct. 1992), a screening test of the modulation of induction of NOS2 by normal human keratinocytes. The objective of this test is, briefly, to evaluate the concentration of nitrate and nitrite after stimulation of the NO-synthase 2.
The test is carried out on a culture of normal human keratinocytes, derived from samples taken. The induction of the inducible NO synthase (NOS2) was caused by the addition of a combination of several cytokines to the culture medium. The product tested was applied at three concentrations varying from […] to 1000 μM.
The product tested was classed in one of the following two categories: inhibitor (I) or donor (D) of NO (nitric oxide) according to its capacity to diminish or increase, respectively, the quantity of nitrites and nitrates produced compared to the control signal […].
The following controls were introduced in the test:
A: positive control (induction of the enzyme): mixtures of interferon-γ (1000 u/ml) and interleukin 1-β (100 u/ml)
In order to determine the activity of the test product the quantity of stable NO reaction products (nitrites and nitrates) is measured with the aid of the “nitric calorimetric assay” kit sold by the Boehringer company under catalogue number 1756.28.
Ascorbyl 2-O-cinnamate was tested at concentrations of 100 μM, 500 μM and 1000 μM in ethanol

[2] = system: normal human keratinocytes; assay: cytotoxicity (% diminution of the signal compared with the control); format: cell-based; details: % diminution of signal vs control; not very cytotoxic 0-20%, acceptable up to 40%, not retained >40%
Description: Moreover, the cytotoxicity was expressed as % diminution of the signal compared with the control. A product was considered to be not very cytotoxic from 0-20%, acceptable up to 40% and not retained for values >40%.

T1 sequence (P35228 whole entry): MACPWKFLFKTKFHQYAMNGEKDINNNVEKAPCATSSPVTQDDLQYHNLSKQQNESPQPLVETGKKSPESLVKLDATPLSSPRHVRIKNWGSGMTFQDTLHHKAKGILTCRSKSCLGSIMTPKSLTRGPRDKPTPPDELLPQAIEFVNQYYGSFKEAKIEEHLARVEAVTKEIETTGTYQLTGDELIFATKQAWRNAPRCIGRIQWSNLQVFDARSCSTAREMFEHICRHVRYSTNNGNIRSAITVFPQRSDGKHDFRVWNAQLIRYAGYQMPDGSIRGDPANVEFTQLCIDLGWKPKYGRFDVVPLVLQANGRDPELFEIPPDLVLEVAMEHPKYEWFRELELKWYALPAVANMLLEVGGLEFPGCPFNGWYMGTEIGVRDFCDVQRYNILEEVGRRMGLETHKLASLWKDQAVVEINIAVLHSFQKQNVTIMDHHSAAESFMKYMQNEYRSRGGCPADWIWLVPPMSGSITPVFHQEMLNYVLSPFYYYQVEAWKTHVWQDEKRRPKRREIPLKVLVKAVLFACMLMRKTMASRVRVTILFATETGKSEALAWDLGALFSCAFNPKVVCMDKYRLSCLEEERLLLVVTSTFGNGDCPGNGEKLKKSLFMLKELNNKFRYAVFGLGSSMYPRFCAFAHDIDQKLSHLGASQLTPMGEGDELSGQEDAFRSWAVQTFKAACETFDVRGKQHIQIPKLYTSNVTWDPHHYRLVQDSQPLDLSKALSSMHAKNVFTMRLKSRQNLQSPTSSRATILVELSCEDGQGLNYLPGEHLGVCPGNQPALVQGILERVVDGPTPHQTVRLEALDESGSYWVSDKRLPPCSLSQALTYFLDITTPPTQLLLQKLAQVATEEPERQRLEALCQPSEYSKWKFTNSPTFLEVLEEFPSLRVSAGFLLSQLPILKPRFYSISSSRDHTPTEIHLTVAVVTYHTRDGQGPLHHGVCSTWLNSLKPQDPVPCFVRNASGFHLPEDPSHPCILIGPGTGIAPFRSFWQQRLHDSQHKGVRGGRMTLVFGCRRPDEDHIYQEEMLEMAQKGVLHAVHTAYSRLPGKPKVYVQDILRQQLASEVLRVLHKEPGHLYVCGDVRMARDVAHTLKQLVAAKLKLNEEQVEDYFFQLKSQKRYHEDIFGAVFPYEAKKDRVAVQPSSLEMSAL

% inhibition ([1]; 100 μM in ethanol): 24.79%
% inhibition ([1]; 500 μM in ethanol): 53.74%
% inhibition ([1]; 1000 μM in ethanol): 74.4%
classification as inhibitor (I) or donor (D) of NO ([1]; according to capacity to diminish or increase the quantity of nitrites and nitrates produced compared to the control signal): NO donor effect
SMILES: O=C(/C=C/c1ccccc1)OC1=C(O)[C@@H]([C@@H](O)CO)OC1=O [Ascorbyl 2-O-cinnamate, ascorbyl 2-O-cinnamate]
cytotoxicity [2]: not toxic
